Test results taken from patent US12171734B2, “Pathogenic bacteria” (Sporegen Limited, priority 2018, dated 2024).
Values after ≈ are worked out from the molar mass of the structure shown. “Also recorded” adds a separate entry of the source. Numbered stars: 1 amine (or outer) side, 2 acyl side, 3 side chain; on linkers, the order of the positions; unused ones are H or OH. Bridge positions count the residues as written; N and C are the ends. Square brackets hold non-standard residues; d marks the D form. Peptide text beside a SMILES is read from it. X1 = CC(C)CCCCCCCCC[C@H](CC(=O)[*:1])O[*:2]; X2 = CCC(C)CCCCCCCCCCC(CC(=O)[*:2])N[*:1]

Legend:
CD630 [1] = assay: Microdilution assay of inhibitory activity against C. difficile strain 630; conditions: for activity to CD630 of commercial lipopeptides: commercial (SIGMA) samples, alone or combined
M. tuberculosis H37Rv = assay: MIC by resazurin microtitre assay (REMA); format: cell-based; conditions: Mycobacterium tuberculosis, 240 h, read-out: MIC, M. tuberculosis H37Rv
[2] = lipopeptides of B. subtilis; cited from earlier work
[3] = Solubility in water / appearance of solution; format: physicochemical
Description: C15 iturin A is an example of a lipopeptide able to form micelles and is water-soluble. The inventors suspect that C15 iturin A may enable other lipopeptides to be solubilised in water and potentially form mixed micelles enabling them to target the bacterial cell. To test this, the inventors mixed water solubilised C15 iturin A with a commercial surfactin (Sigma S3523; derived from B. subtilis and a mixture of C13-C15 surfactins). […] The presence of C15 iturin A enables the solubilisation of […] in water and probably all or many of the other lipopeptides present in or on the cell wall of SG277 and other Bacillus species. The important requirements for activity are the concentration of lipopeptides that are produced (since micelles can only be formed at levels above a critical threshold). The micelles formed are most likely to be mixed micelles (i.e., carrying different lipopeptide species but all carrying C15 iturin A)(at least for B. amyloliquefaciens).

CD630 [4] = assay: Bacteriolytic vs bacteriocidal vs bacteriostatic activity on log-phase CD630 cultures (OD600, CFU); format: cell-based, C. difficile; conditions: activity normalised; added at log phase
Protocol: Fractions 1-3 were analysed for their ability to inhibit growth of cultures of CD630 by addition of test material at the log phase of cell growth (OD600˜0.3). Test materials were diluted in dH2O to normalise so that each sample to be tested carried the same activity/volume. […] of diluted test material was added to 1 ml of CD630 culture and 0.2 ml removed hourly for OD600 readings.
Optical density (OD600) was measured before and after addition of test material. A decline in OD600 indicates bacteriolytic activity while stalling of the increase in OD600 indicates either bacteriostatic or bacteriocidal growth. On the other hand a decline in CFU/ml indicates both bacteriolytic and/or bacteriocidal activity. (FIGS. 22A and 22B and Table 13).

Iturin A
activity to CD630 of commercial lipopeptides (CD630 [1]): unable to demonstrate any activity | activity to CD630 of commercial lipopeptides (CD630 [1]; listed as iturin): none showed activity

NNC(=O)c1ccncc1 [Isoniazid]
MIC (M. tuberculosis H37Rv): 0.25 µg/mL (≈ 1.82 µM)

fengycin
activity to CD630 of commercial lipopeptides (CD630 [1]): none showed activity

CO[C@H]1/C=C/O[C@@]2(C)Oc3c(C)c(O)c4c(O)c(c(/C=N/N5CCN(C)CC5)c(O)c4c3C2=O)NC(=O)/C(C)=C\C=C\[C@H](C)[C@H](O)[C@@H](C)[C@@H](O)[C@@H](C)[C@H](OC(C)=O)[C@@H]1C [Rifampicin]
MIC (M. tuberculosis H37Rv): 0.5 µg/mL (≈ 0.608 µM)

CC(C)CCCCCCCCC[C@@H]1CC(=O)N[C@@H](CCC(=O)O)C(=O)N[C@@H](CC(C)C)C(=O)N[C@H](CC(C)C)C(=O)N[C@@H](C(C)C)C(=O)N[C@@H](CC(=O)O)C(=O)N[C@H](CC(C)C)C(=O)N[C@@H](CC(C)C)C(=O)O1 [surfactin, Surfactin] (EL[dL]VD[dL]L; linker N-C via X1)
activity against C. difficile (in words) (CD630 [1]): no activity | activity to CD630 of commercial lipopeptides (CD630 [1]): unable to demonstrate any activity; also recorded: none showed activity | micelle size [2]: 5-105 nm | solubility in water [3]: not soluble in water

CCC(C)CCCCCCCCCCC1CC(=O)N[C@@H](CC(N)=O)C(=O)N[C@@H](CCC(N)=O)C(=O)N2CCC[C@H]2C(=O)N[C@H](Cc2ccc(O)cc2)C(=O)N[C@H](CC(N)=O)C(=O)N[C@H](CC(N)=O)C(=O)N[C@H](CO)C(=O)N[C@@H](CC(N)=O)C(=O)N1 (some centres unmarked) [mycosubtilin, Mycosubtilin] (cyclo(NQP[dY][dN][dN][dS]N[X2]))
micelle size [2]: 8-18 nm

CC(N)C(=O)NC(C[C@@H]1C=C(Cl)C(=O)CC1)C(=O)O (some centres unmarked) [Chlorotetaine]
Bacteriocidal (cessation of cell growth, CD630 cfu/ml) (CD630 [4]): bacteriocidal
